In this test the test system is Cmm. The test can be described thus: Agar well diffusion assay against Cmm. In kind it is cell-based, Clavibacter michiganensis subsp. michiganensis. As for the experimental part:
In addition, the antibacterial activity of various fractions and the purified antibiotic produced by B. pumilus was assessed via agar well diffusion assay. Cmm was grown as described above and a suspension of 100 μL was evenly spread over fresh NBYA plates using sterile spreader. Wells of 6 mm diameter were carefully made in the agar and 50 μL of the test fraction or antibiotic test sample extracted from B. pumilus was poured into the agar well. Sterilized distilled water served as a control treatment.
The antimicrobial activities of Micrococcin P1 at various concentrations were assessed via agar well diffusion assay. A cell suspension of Cmm was overlaid on NBYA and the plates were allowed to air dry. A 50 μL drop of Micrococcin P1 diluted in various concentrations were applied into agar well.
For orientation: In agar diffusion tests the substance spreads into inoculated agar from a disc or well.

Values joined by “and” are separate entries in the source; they are usually repeats but may differ in a detail not shown here. Identical values can stand only once.

Micrococcin P1: under “50 μL in 6 mm agar well, NBYA, 28° C., 3 days”, the “antibacterial activity against Cmm, zone of inhibition around the well” value is “antimicrobial activity against Cmm”. Also, the “concentration having the most significant effects” value (highest concentration tested) is 5 mg/L and 4.37 μM. In addition, the “amount per well needed for growth inhibition zones” value (per well in 50 μL, NBYA, 3 days 28° C.) is reported as at least 7.8125 ng. Also, the “dose dependence of antibacterial activities” value (various concentrations, FIG. 7) is listed as “increased proportional to the Micrococcin P1 concentrations”.

These data come from patent publication US20260182582A1, “METHODS AND COMPOSITIONS FOR BIOPROTECTION OF TOMATOES FROM CLAVIBACTER MICHIGANENSIS SUBSP. MICHIGANENSIS” (The Royal Institution for the Advancement of …, priority 2018, published 2026).
